Assay results reported in patent US8580965B2, “Substituted sulfonamide compounds” (Gruenenthal GmbH, priority 2006, dated 2013).

Tests used:
[1] = molecular target: T1, human B1R receptor (bradykinin 1 receptor) (Homo sapiens, UniProt P46663); assay: FLIPR Ca2+ assay (Fluo-4) on CHO K1 cells stably transfected with the human B1R gene; % activation and % inhibition at 10 μM; type: cell-based; conditions: CHO-K1, test substance 10 μM; CHO K1 hB1R cells; Ca2+ inflow after 0.5 nM Lys-Des-Arg9-bradykinin; read-out: B1R antagonism, human [10 μM] % inhibition
T1 construct: host or cells: CHO K1 cells (hB1R cells)
T1 sequence (P46663 1-353): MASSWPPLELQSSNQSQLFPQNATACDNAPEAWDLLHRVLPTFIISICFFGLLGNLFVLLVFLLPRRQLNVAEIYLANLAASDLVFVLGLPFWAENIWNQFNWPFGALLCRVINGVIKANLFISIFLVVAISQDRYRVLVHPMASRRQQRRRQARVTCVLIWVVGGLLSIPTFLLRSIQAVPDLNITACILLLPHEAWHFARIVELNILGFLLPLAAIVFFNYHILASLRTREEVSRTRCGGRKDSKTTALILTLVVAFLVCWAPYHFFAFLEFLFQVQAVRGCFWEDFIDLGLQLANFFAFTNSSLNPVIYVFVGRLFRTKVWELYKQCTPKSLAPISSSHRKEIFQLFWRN
How it was run: (§1)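 Fluo-4 Ca2+ flux on FLIPR in stable hB1R or rB1R CHO K1 lines, two additions. Agonism: 10 µM compound versus 0.5 nM Lys-Des-Arg9-BK (human) or 100 nM Des-Arg9-BK (rat); antagonism: same agonists applied 10 min later, suppression expressed against maximum achievable inhibition.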

[2] = molecular target: T2, B1R receptor of the rat (bradykinin 1 receptor) (Rattus norvegicus, UniProt P97583); assay: FLIPR Ca2+ assay (Fluo-4) on CHO K1 cells stably transfected with the B1R gene of the rat; % activation and % inhibition at 10 μM; type: cell-based; conditions: CHO-K1, test substance 10 μM; CHO K1 rB1R cells; Ca2+ inflow after 100 nM Des-Arg9-bradykinin; read-out: B1R antagonism, rat [10 μM] % inhibition
T2 construct: host or cells: CHO K1 cells (rB1R cells)
T2 sequence (P97583 1-337): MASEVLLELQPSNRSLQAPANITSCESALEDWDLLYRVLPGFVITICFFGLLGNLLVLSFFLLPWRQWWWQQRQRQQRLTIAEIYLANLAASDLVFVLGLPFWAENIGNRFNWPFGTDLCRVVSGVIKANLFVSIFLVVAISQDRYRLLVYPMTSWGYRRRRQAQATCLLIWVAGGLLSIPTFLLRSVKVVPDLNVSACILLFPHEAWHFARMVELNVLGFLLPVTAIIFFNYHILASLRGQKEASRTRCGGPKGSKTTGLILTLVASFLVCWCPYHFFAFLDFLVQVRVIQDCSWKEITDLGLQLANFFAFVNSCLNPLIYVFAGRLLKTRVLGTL
How it was run: as §1

Row | Structure (SMILES) | inhibition at 10 µM [1] | inhibition at 10 µM [2]
1 | COc1cc(C)c(S(=O)(=O)N(C)CCOCC(=O)N2CCC(O)(c3cccnc3)CC2)c(C)c1 [Example 143, N-(2-(2-(4-hydroxy-4-(pyridin-3-yl)piperidin-1-yl)-2-oxoethoxy)ethyl)-4-methoxy-N,2,6-trimethylphenylsulfonamide] | 105% | 100%
2 | O=C(COCC1CCc2ccccc2N1S(=O)(=O)c1ccc(Cl)c(Cl)c1)N1CCC(O)(c2ccccn2)CC1 (stereo not shown) [Example 146, 2-((1-(3,4-dichlorophenylsulfonyl)-1,2,3,4-tetrahydroquinolin-2-yl)methoxy)-1-(4-hydroxy-4-(pyridin-2-yl)piperidin-1-yl)ethanone] | 70.7% | 92.8%
3 | O=C(COCC1CCc2ccccc2N1S(=O)(=O)c1ccc(Cl)c(Cl)c1)N1CCC(O)(c2ccncc2)CC1 (stereo not shown) [Example 147, 2-((1-(3,4-dichlorophenylsulfonyl)-1,2,3,4-tetrahydroquinolin-2-yl)methoxy)-1-(4-hydroxy-4-(pyridin-4-yl)piperidin-1-yl)ethanone] | 53.9% | 93.3%
4 | Cc1ccc2ccccc2c1S(=O)(=O)N(C)CCOCC(=O)N1CCC(O)(c2cccnc2)CC1 [Example 148, N-(2-(2-(4-hydroxy-4-(pyridin-3-yl)piperidin-1-yl)-2-oxoethoxy)ethyl)-N,2-dimethylnaphthalene-1-sulfonamide] | 100% | 99%
5 | Cc1cc(S(=O)(=O)N(C)CCOCC(=O)N2CCC(O)(c3ccc(Cl)cc3)CC2)c(C)cc1Cl [Example 150, 4-chloro-N-(2-(2-(4-(4-chlorophenyl)-4-hydroxypiperidin-1-yl)-2-oxoethoxy)ethyl)-N,2,5-trimethylphenylsulfonamide] | 95.3% | 93.7%
6 | Cc1cc(S(=O)(=O)N(C)CCOCC(=O)N2CCC(O)(c3ccc(Br)cc3)CC2)c(C)cc1Cl [Example 151, N-(2-(2-(4-(4-bromophenyl)-4-hydroxypiperidin-1-yl)-2-oxoethoxy)ethyl)-4-chloro-N,2,5-trimethylphenylsulfonamide] | 97.8% | 86.9%
7 | Cc1cc(S(=O)(=O)N(C)CCOCC(=O)N2CCC(O)(c3cccc(C(F)(F)F)c3)CC2)c(C)cc1Cl [Example 154, 4-chloro-N-(2-(2-(4-hydroxy-4-(3-(trifluoromethyl)phenyl)piperidin-1-yl)-2-oxoethoxy)ethyl)-N,2,5-trimethylphenylsulfonamide] | 98.8% | 96.4%
8 | O=C(COCC1CCCCN1S(=O)(=O)c1ccc(C(F)(F)F)cc1)N1CCC(O)(c2cccnc2)CC1 (stereo not shown) [Example 155, 1-(4-hydroxy-4-(pyridin-3-yl)piperidin-1-yl)-2-((1-(4-(trifluoromethyl)phenylsulfonyl)piperidin-2-yl)methoxy)ethanone] | 30.3% | 60.3%
9 | O=C(COCC1CCCCN1S(=O)(=O)c1c(Cl)cc(C(F)(F)F)cc1Cl)N1CCC(O)(c2ccc(Cl)c(C(F)(F)F)c2)CC1 (stereo not shown) [Example 165, 1-(4-(4-chloro-3-(trifluoromethyl)phenyl)-4-hydroxypiperidin-1-yl)-2-((1-(2,6-dichloro-4-(trifluoromethyl)phenylsulfonyl)piperidin-2-yl)methoxy)ethanone] | 2.63% | 104%
10 | O=C(COCC1CCCN1S(=O)(=O)c1c(Cl)cc(C(F)(F)F)cc1Cl)N1CCC(O)(c2ccc(Cl)cc2)CC1 (stereo not shown) [Example 166, 1-(4-(4-chlorophenyl)-4-hydroxypiperidin-1-yl)-2-((1-(2,6-dichloro-4-(trifluoromethyl)phenylsulfonyl)pyrrolidin-2-yl)methoxy)ethanone] | 58.5% | 104%

Next, values leading:

Row | inhibition at 10 µM [1] | inhibition at 10 µM [2] | Structure (SMILES)
11 | 103% | 100% | COc1cc(C)c(S(=O)(=O)N2CCCCC2COCC(=O)N2CCC(O)(c3cccc(F)c3)CC2)c(C)c1 (stereo not shown) [Example 142, 1-(4-(3-fluorophenyl)-4-hydroxypiperidin-1-yl)-2-((1-(4-methoxy-2,6-dimethylphenylsulfonyl)piperidin-2-yl)methoxy)ethanone]
12 | 104% | 101% | COc1cc(C)c(S(=O)(=O)N2CCCCC2COCC(=O)N2CCC(O)(c3ccncc3)CC2)c(C)c1 (stereo not shown) [Example 144, 1-(4-hydroxy-4-(pyridin-4-yl)piperidin-1-yl)-2-((1-(4-methoxy-2,6-dimethylphenylsulfonyl)piperidin-2-yl)methoxy)ethanone]
13 | 99.1% | 100% | Cc1cc(S(=O)(=O)N(C)CCOCC(=O)N2CCC(O)(c3cccnc3)CC2)c(C)cc1Cl [Example 149, 4-chloro-N-(2-(2-(4-hydroxy-4-(pyridin-3-yl)piperidin-1-yl)-2-oxoethoxy)ethyl)-N,2,5-trimethylphenylsulfonamide]
14 | 81.6% | 77.2% | Cc1cc(S(=O)(=O)N(C)CCOCC(=O)N2CCC(O)(c3ccccc3)CC2)c(C)cc1Cl [Example 152, 4-chloro-N-(2-(2-(4-hydroxy-4-phenylpiperidin-1-yl)-2-oxoethoxy)ethyl)-N,2,5-trimethylphenylsulfonamide]
15 | 71.8% | 69.1% | Cc1cc(S(=O)(=O)N(C)CCOCC(=O)N2CCC(O)(Cc3ccccc3)CC2)c(C)cc1Cl [Example 153, N-(2-(2-(4-benzyl-4-hydroxypiperidin-1-yl)-2-oxoethoxy)ethyl)-4-chloro-N,2,5-trimethylphenylsulfonamide]
16 | 20.9% | 70.3% | O=C(COCC1CCCCN1S(=O)(=O)c1ccc(C(F)(F)F)cc1)N1CCC(O)(c2ccc(Cl)cc2)CC1 (stereo not shown) [Example 156, 1-(4-(4-chlorophenyl)-4-hydroxypiperidin-1-yl)-2-((1-(4-(trifluoromethyl)phenylsulfonyl)piperidin-2-yl)methoxy)ethanone]
17 | 77.1% | 101% | Cc1cc(S(=O)(=O)N2CCCCC2COCC(=O)N2CCC(O)(c3cccnc3)CC2)c(C)cc1Cl (stereo not shown) [Example 157, 2-((1-(4-chloro-2,5-dimethylphenylsulfonyl)piperidin-2-yl)methoxy)-1-(4-hydroxy-4-(pyridin-3-yl)piperidin-1-yl)ethanone]
18 | 44.9% | 105% | Cc1cc(S(=O)(=O)N2CCCCC2COCC(=O)N2CCC(O)(c3ccccc3)CC2)c(C)cc1Cl (stereo not shown) [Example 158, 2-((1-(4-chloro-2,5-dimethylphenylsulfonyl)piperidin-2-yl)methoxy)-1-(4-hydroxy-4-phenylpiperidin-1-yl)ethanone]
19 | 38.5% | 97% | Cc1cc(S(=O)(=O)N2CCCCC2COCC(=O)N2CCC(O)(Cc3ccccc3)CC2)c(C)cc1Cl (stereo not shown) [Example 159, 1-(4-benzyl-4-hydroxypiperidin-1-yl)-2-((1-(4-chloro-2,5-dimethylphenylsulfonyl)piperidin-2-yl)methoxy)ethanone]
20 | 78.5% | 80.8% | Cc1ccc(S(=O)(=O)N2CCCCC2COCC(=O)N2CCC(O)(c3cccnc3)CC2)cc1Cl (stereo not shown) [Example 161, 2-((1-(3-chloro-4-methylphenylsulfonyl)piperidin-2-yl)methoxy)-1-(4-hydroxy-4-(pyridin-3-yl)piperidin-1-yl)ethanone]
21 | 24.6% | 105% | O=C(COCC1CCCCN1S(=O)(=O)c1c(Cl)cc(C(F)(F)F)cc1Cl)N1CCC(O)(c2ccccc2)CC1 (stereo not shown) [Example 162, 2-((1-(2,6-dichloro-4-(trifluoromethyl)phenylsulfonyl)piperidin-2-yl)methoxy)-1-(4-hydroxy-4-phenylpiperidin-1-yl)ethanone]
22 | 46.1% | 101% | O=C(COCC1CCCCN1S(=O)(=O)c1c(Cl)cc(C(F)(F)F)cc1Cl)N1CCC(O)(Cc2ccccc2)CC1 (stereo not shown) [Example 163, 1-(4-benzyl-4-hydroxypiperidin-1-yl)-2-((1-(2,6-dichloro-4-(trifluoromethyl)phenylsulfonyl)piperidin-2-yl)methoxy)ethanone]
23 | 36.4% | 103% | O=C(COCC1CCCCN1S(=O)(=O)c1c(Cl)cc(C(F)(F)F)cc1Cl)N1CCC(O)(c2cccc(C(F)(F)F)c2)CC1 (stereo not shown) [Example 164, 2-((1-(2,6-dichloro-4-(trifluoromethyl)phenylsulfonyl)piperidin-2-yl)methoxy)-1-(4-hydroxy-4-(3-(trifluoromethyl)phenyl)piperidin-1-yl)ethanone]
